Measured values: US20240272164A1, “METHODS FOR CLASSIFYING TUMORS AND USES THEREFOR” (THE UNIVERSITY OF QUEENSLAND, priority 2015, published 2024)
Entries after “also recorded” stand apart in the source; their conditions may differ.

What was measured:
Assay type in all cases: cell-based
breast cancer cell lines = system: breast cancer cell lines
From the text: Dyngo4a, a small molecule inhibitor of dynamin, was used to block dynamin-mediated endocytosis (Mccluskey et al., 2013) and added into the immune-dependent cytotoxicity assays. […] However, the specific cell death of BT474 cells was not enhanced following treatment with Dyngo4a (FIG. 4C).

A431 cells = assay: EGF-Alexa488 uptake and clathrin localisation, confocal and 3D-SIM super-resolution microscopy; conditions: for Internalization of EGF-Alexa488: 30 min drug, EGF-Alexa488 last five minutes, confocal, FIG. 7A-C; for Clathrin recruitment to the plasma membrane: 3D-SIM volume projections, FIG. 7G-I; for Effect on HER1 (EGFR) at the plasma membrane: Pitstop-2 30 μM or chlorpromazine 18 μM, 30 min
Protocol: To discuss the experiments in more detail, A431 cells were incubated in serum-free medium with no drugs (control), or with Pitstop®-2 for 30 min or chlorpromazine for 30 min. During the last five minutes of treatment EGF-Alexa488 was added to monitor CME, after which cells were fixed and imaged (FIG. 7A-C).
Volume projections of a small area of the cell periphery were used to examine the recruitment of clathrin and EGF-positive sites to the cell periphery (FIG. 7G-I). The angle of 3D projection was chosen to show the upper surface of the cell plasma membrane. Points of co-localisation between EGF-Alexa^488 and Alexa^594-conjugated antibodies (which detects clathrin) are rare in 3D-SIM due to the capture of frequency information differences between the 488 and 594 excitation/emission spectra. […] A clathrin punctum was defined as being recruited an HER1-positive site when there was 50 nm or less distance between the clathrin and EGF puncta.
A431 cells were seeded on coverslips in 12-well plates and incubated overnight to reach 80% confluence for super-resolution microscopy based on structured illumination. After a 3 hour-serum starvation the cells were treated with 30 μM of Pitstop®-2 or 18 μM chlorpromazine for 30 min, followed by 5 min uptake with EGF-Alexa488 (100 ng/ml). The uptake of EGF was stopped by washing three times in ice cold PBS. The cells were fixed in 4% paraformaldehyde/phosphate-buffered saline for 30 min and washed three times in phosphate-buffered saline before DAPI staining for 30 min. The coverslips were mounted on slides in Prolong Gold (Life technologies) for confocal analysis or glycerol-based imaging media for three dimensional structured illumination microscopy (3D-SIM). Confocal images were acquired using a Zeiss 510 Meta confocal with a 63 Å˜ objective. Reconstructing the subsequent images after modulating the illumination pattern produces super-resolution images with double the lateral and axial resolution and up to 10 μm into the cell. 3D-SIM images were captured on a Deltavision OMX V3 Imaging System (Applied Precision), EMCCD cameras (CascadeII 512×512 Photometrics) and using a 60×1.4-NA UPlanSApo oil-immersion objective (Olympus) with oil of a refractive index of 1.518. […] Images were computationally reconstructed using Deltavision SoftWorX6.0 Beta 19 software (Applied Precision).

[1] = system: Cetuximab-sensitive or resistant cell lines; assay: ADCC in response to Cetuximab with endocytosis inhibitors; conditions: either Cetuximab-sensitive or resistant cell lines
Protocol: If only the plasma membrane levels of HER1 determine ADCC response then we would expect that any pharmacological blockade of HER1 internalization would be expected to enhance ADCC. Thus, numerous endocytosis inhibitors were tested to investigate this hypothesis.

SMILES	Toxicity of Dyngo4a (breast cancer cell lines)	Internalization of EGF-Alexa488 (A431 cells; A431 cells)	Clathrin recruitment to the plasma membrane (A431 cells; A431 cells)	Inhibition of CCV (clathrin coated vesicle) formation (A431 cells; A431 cells, confocal and 3D-SIM)	Effect on HER1 (EGFR) at the plasma membrane (A431 cells)	Effect on ADCC in response to Cetuximab [1]
O=C(N/N=C/c1cc(O)c(O)cc1O)c1cc2ccccc2cc1O [Dyngo4a]	non-toxic	–	–	–	–	–
O=C1NC(=NS(=O)(=O)c2cccc3ccccc23)S/C1=C\c1ccc(Br)cc1 [Pitstop®-2]	–	no internalization	clathrin was not recruited	inhibits CCV formation	caused HER1 to be trapped on the plasma membrane	did not increase ADCC
CN(C)CCCN1c2ccccc2Sc2ccc(Cl)cc21 [chlorpromazine]	–	no internalization	does not inhibit clathrin recruitment	–	clustering and recruitment of HER1 into CCVs; also recorded: abundant EGFR was trapped at the cell membrane	–
